Reference: the NIST ThermoML archive (doi:10.1016/j.jct.2008.12.005)
Numbers after ± are expanded uncertainties.

Assay: activity coefficient (dimensionless); of the first substance listed, at infinite dilution; xn = mol fraction of the nth substance listed
Conditions: 101 kPa, Liquid, Chromatography, x1 = 0

Compound `Cc1cccc(C)c1` [1,3-dimethylbenzene] + CC[S+](CC)CC.O=S(=O)([N-]S(=O)(=O)C(F)(F)F)C(F)(F)F has an activity coefficient (308.15 K) of 2.29 ± 0.16, an activity coefficient (318.15 K) of 2.31 ± 0.16 and an activity coefficient (328.15 K) of 2.33 ± 0.16. It also gave an activity coefficient (338.15 K) of 2.34 ± 0.16, an activity coefficient (348.15 K) of 2.36 ± 0.16 and an activity coefficient (358.15 K) of 2.38 ± 0.16. It also gave an activity coefficient (368.15 K) of 2.39 ± 0.16.
In the case of `CCCO` [propan-1-ol] + CC[S+](CC)CC.O=S(=O)([N-]S(=O)(=O)C(F)(F)F)C(F)(F)F, the activity coefficient (308.15 K) is reported as 2.49 ± 0.17, the activity coefficient (318.15 K) is reported as 2.24 ± 0.15 and the activity coefficient (328.15 K) is reported as 2.04 ± 0.14. The activity coefficient (338.15 K) was 1.85 ± 0.12, the activity coefficient (348.15 K) was 1.7 ± 0.11 and the activity coefficient (358.15 K) was 1.57 ± 0.1. For the same compound, the activity coefficient (368.15 K) was 1.46 ± 0.1.
For `C=CCCCCCC` [oct-1-ene] + CC[S+](CC)CC.O=S(=O)([N-]S(=O)(=O)C(F)(F)F)C(F)(F)F, the activity coefficient (298.15 K) was 27 ± 1.8, the activity coefficient (308.15 K) was 25 ± 1.7 and the activity coefficient (318.15 K) was 23.2 ± 1.6. For the same compound, the activity coefficient (328.15 K) was 21.8 ± 1.5, the activity coefficient (338.15 K) was 20.4 ± 1.4 and the activity coefficient (348.15 K) was 19.2 ± 1.3. The activity coefficient (358.15 K) was 18.2 ± 1.2 and the activity coefficient (368.15 K) was 17.3 ± 1.2.
For `C#CCCCCCC` [1-octyne] + CC[S+](CC)CC.O=S(=O)([N-]S(=O)(=O)C(F)(F)F)C(F)(F)F, the activity coefficient (298.15 K) was 7.87 ± 0.54, the activity coefficient (308.15 K) was 7.68 ± 0.52 and the activity coefficient (318.15 K) was 7.51 ± 0.51. For the same compound, the activity coefficient (328.15 K) was 7.35 ± 0.5, the activity coefficient (338.15 K) was 7.2 ± 0.49 and the activity coefficient (348.15 K) was 7.06 ± 0.48. It also gave an activity coefficient (358.15 K) of 6.93 ± 0.47 and an activity coefficient (368.15 K) of 6.81 ± 0.46.
`Cc1ccc(C)cc1` [1,4-dimethylbenzene] + CC[S+](CC)CC.O=S(=O)([N-]S(=O)(=O)C(F)(F)F)C(F)(F)F gave an activity coefficient (308.15 K) of 2.27 ± 0.15, an activity coefficient (318.15 K) of 2.3 ± 0.16 and an activity coefficient (328.15 K) of 2.32 ± 0.16. The activity coefficient (338.15 K) was 2.34 ± 0.16, the activity coefficient (348.15 K) was 2.36 ± 0.16 and the activity coefficient (358.15 K) was 2.38 ± 0.16. For the same compound, the activity coefficient (368.15 K) was 2.4 ± 0.16.
